# Data reported in patent publication US8835466B2, “Synthesis and uses of pyroglutamic acid derivatives” (Prodimed, S.A., priority 2006, dated 2014).
# Tests used:
# [1] = test system: Renca cells (renal cell carcinoma); assay: Effect of isomers on in vivo tumour growth in mice challenged with Renca cells (Example 7); parameters: species or system Balb/c mice; conditions: for Tumour surface, overall values (Mean) / Tumour surface, overall values (Median) / Tumour volume, overall values (Mean) / Tumour volume, overall values (Median): 260 ng/mouse i.p. days 6, 7, 14; for Differences in Renca tumour growth rate vs. placebo, statistical significance p (Mann-Whitney U test): either in surface or volume
# Excerpt: This assay was made in order to check the effect of each stereoisomer on in vivo tumour growth in mice challenged with Renca cells. Their effect was compared with placebo. The stereoisomers assayed were:
# Renca is a renal cell carcinoma originated in Balb/c mouse strain, and therefore syngeneic in mice with Balb/c genetic background [Melder R J et al., Cancer Immunol. Immunother., 2005, 54:535-547; Felluga B et al., 1969, J. Natl. Cancer Inst. 43:319-333]. Renca is considered a moderate immunogenic tumour and used as suitable model for testing immunointervention approaches [Salup R R, et al., 1992, The Journal of Urology, 147:1120-1123].
# (§1) Renca cells (CLS, Eppelheim, Germany) were maintained in vitro by serial passages every 3-4 days. Cultures were performed with RPMI medium medium (RPMI, 10% foetal calf serum, 2 mM L-glutamine, non essential amino acids, 1 mM sodium pyruvate, 20 mM HEPES, 80 μg/mL gentamycin; all of them were purchased from Sigma, St. Louis, Mo., USA) by seeding 5×10^6 cells onto 75 cm^2 culture flasks. Tumour cells collected from 48 hour cultures upon trypsinization (Sigma, St. Louis, Mo., USA) were used as source of Renca cells for the studies described below.
# Each isomer was tested at the dose levels of 260 ng administered on days 6, 7 and 14 after tumour inoculation.
# The treatments were given by intraperitoneal route (i.p.). The volume inoculated was 0.2 mL/animal. This route was chosen because it is the one described in the original method [Pérez S, et al., 2003, Clinical Cancer Research. 9:5776-5785].
# Tumours were established by subcutaneous inoculation in the right hind flank. Mice (Balb/c) were inoculated with 0.2 mL containing 10^5 viable Renca cells. The day of subcutaneous inoculation will be considered Day 0 of the test.
# Mice were observed daily and the tumour size recorded twice a week. This was carried out by measuring two perpendicular diameters (L/W) with a calliper. These measures were used to obtain both tumour surface and volume: Tumour surface=L×W(mm^2) Tumour volume=L×W^2×½(mm^3)
# (§2) Results were expressed as single values and/or as the mean±SD or median from each experimental group.
# (§3) A case-control study was performed with treated and control mice in order to determine whether differences between isomers and administration of placebo were present. […] The U-test of Mann Withney was chosen for being one of the better known non-parametrical tests, anyway, results for this test are equivalent both to those of Wilcoxon's sum of ranges and Kruskal-Wallis two-groups test.
# Due to the high dispersion of data, outlayers (animals beyond percentile 25 or above percentile 75 for tumour surface at day 25) were excluded of the study.
# [2] = test system: ASB XIV cells (pulmonary squamous cell carcinoma); assay: Effect of isomers and BLAS on in vivo tumour growth, ASB XIV tumours (Example 8); parameters: species or system Balb/c mice; conditions: for Inhibition of the in vivo growth of the lung carcinoma ASB XIV, in words: 260 ng i.p. days 6, 7 and 14; for Tumour surface, overall values (Mean) / Tumour surface, overall values (Median) / Tumour volume, overall values (Mean) / Tumour volume, overall values (Median): 260 ng/mouse i.p. days 6, 7 and 14; for Differences in ASB XIV tumour growth rate vs. placebo, statistical significance p (Mann-Whitney U test): either in surface or volume, all days scored after the day 26th
# Excerpt: This assay was made in order to compare the effect of each stereoisomer on in vivo tumour growth in mice with the effect of the mixture of all of them challenged with ASB XIV tumours. The stereoisomers assayed were the same as in example 7 above plus a mixture of all of them (BLAS). The equipment (when needed), reagents, dose, vehicle and route and volume of administration were the same as in example 7.
# ASB XIV is a pulmonary squamous cell carcinoma originated in Balb/c mouse strain, and therefore syngeneic in mice with Balb/c genetic background.
# as §1, with “ASB XIV cells” for “Renca cells”, “essential aminoacids,” for “essential amino acids,”, “of ASB XIV” for “of Renca”, “cells in” for “cells for”, “the present example.” for “the studies described below.”
# • BLAS (mixture of isomers 1, 2, 3 and 4) at a concentration of 65 μg/mL in sterile physiological saline. Isomer 1 (9b) at a concentration of 65 μg/mL in sterile physiological saline. • Isomer 2 (9c) at a concentration of 65 μg/mL in sterile physiological saline. • Isomer 3 (9a) at a concentration of 65 μg/mL in sterile physiological saline. • Isomer 4 (9d) at a concentration of 65 μg/mL in sterile physiological saline. Placebo
# Tumours were established by subcutaneous inoculation in the right hind flank. Mice (Balb/c) were inoculated with 0.2 mL containing 2×10^5 viable ASB XIV cells. The day of subcutaneous inoculation will be considered Day 0 of the test.
# Mice were observed daily and the tumour size recorded twice a week. This was carried out by measuring two perpendicular diameters (d1/d2) with a calliper. These measures were used to obtain both tumour surface and volume: Tumour surface=d1×d2(mm^2) Tumour volume=d1×d2^2×½(mm^3)
# as §2
# as §3, with “BLAS or each diferent stereoisomer” for “isomers”
# Due to the high dispersion of data, outlayers (animals beyond percentile 10 or above percentile 90 for tumour surface at day 33) were excluded of the study.
# [3] = day 11 after tumour inoculation
# [4] = day 14 after tumour inoculation
# [5] = day 12 after tumour inoculation
# [6] = day 15 after tumour inoculation
# [7] = day 19 after tumour inoculation
# [8] = day 22 after tumour inoculation
# [9] = day 26 after tumour inoculation
# [10] = day 29 after tumour inoculation
# [11] = day 33 after tumour inoculation
smiles,measurement,setting,value
"Br.N[C@]1(C[n+]2ccccc2)C[C@@H](C(=O)O)NC1=O.[Br-] (single isomer, unassigned; isomer 3) [isomer 3, 3S,5S-1-(3-Amino-5-carboxy-2-oxopyrrolidin-3-ylmethyl)pyridinium bromide hidrobromide]","Inhibition of the in vivo growth of the renal cell carcinoma (Renca), in words","[1]; 260 ng i.p. days 6, 7, 14",inhibit the in vivo growth
same,"Tumour surface, overall values (Mean)",[1]; day 0 after tumour inoculation,0 mm^2
same,"Tumour surface, overall values (Median)",[1]; day 0 after tumour inoculation,0 mm^2
same,"Tumour volume, overall values (Mean)",[1]; day 0 after tumour inoculation,0 mm^3
same,"Tumour volume, overall values (Median)",[1]; day 0 after tumour inoculation,0 mm^3
same,"Tumour surface, overall values (Mean)",[1]; [3],0.3 mm^2
same,"Tumour surface, overall values (Median)",[1]; [3],0 mm^2
same,"Tumour volume, overall values (Median)",[1]; [3],0 mm^3
same,"Tumour surface, overall values (Median)",[1]; [4],4 mm^2
same,"Tumour volume, overall values (Median)",[1]; [4],4 mm^3
same,"Differences in Renca tumour growth rate vs. placebo, statistical significance p (Mann-Whitney U test)",[1]; days 18th and 25th of tumour development,< 0.05
same,"Inhibition of the in vivo growth of the lung carcinoma ASB XIV, in words",[2],inhibit the in vivo growth
same,"Tumour surface, overall values (Mean)",[2]; day 0 after tumour inoculation,0 mm^2
same,"Tumour surface, overall values (Median)",[2]; day 0 after tumour inoculation,0 mm^2
same,"Tumour volume, overall values (Mean)",[2]; day 0 after tumour inoculation,0 mm^3
same,"Tumour volume, overall values (Median)",[2]; day 0 after tumour inoculation,0 mm^3
same,"Tumour surface, overall values (Mean)",[2]; day 8 after tumour inoculation,0 mm^2
same,"Tumour surface, overall values (Median)",[2]; day 8 after tumour inoculation,0 mm^2
same,"Tumour volume, overall values (Mean)",[2]; day 8 after tumour inoculation,0 mm^3
same,"Tumour volume, overall values (Median)",[2]; day 8 after tumour inoculation,0 mm^3
same,"Tumour surface, overall values (Mean)",[2]; [5],0.29 mm^2
same,"Tumour surface, overall values (Median)",[2]; [5],0 mm^2
same,"Tumour volume, overall values (Mean)",[2]; [5],0.44 mm^3
same,"Tumour volume, overall values (Median)",[2]; [5],0 mm^3
same,"Tumour surface, overall values (Mean)",[2]; [6],2.81 mm^2
same,"Tumour surface, overall values (Median)",[2]; [6],0 mm^2
same,"Tumour volume, overall values (Mean)",[2]; [6],6.31 mm^3
same,"Tumour volume, overall values (Median)",[2]; [6],0 mm^3
same,"Tumour surface, overall values (Mean)",[2]; [7],15.16 mm^2
same,"Tumour surface, overall values (Median)",[2]; [7],9 mm^2
same,"Tumour volume, overall values (Mean)",[2]; [7],44.13 mm^3
same,"Tumour volume, overall values (Median)",[2]; [7],13.5 mm^3
same,"Tumour surface, overall values (Mean)",[2]; [8],33.16 mm^2
same,"Tumour surface, overall values (Median)",[2]; [8],25 mm^2
same,"Tumour volume, overall values (Mean)",[2]; [8],116.65 mm^3
same,"Tumour volume, overall values (Median)",[2]; [8],62.5 mm^3
same,"Tumour surface, overall values (Mean)",[2]; [9],68.67 mm^2
same,"Tumour surface, overall values (Median)",[2]; [9],64 mm^2
same,"Tumour volume, overall values (Mean)",[2]; [9],337.18 mm^3
same,"Tumour volume, overall values (Median)",[2]; [9],256 mm^3
same,"Tumour surface, overall values (Mean)",[2]; [10],94.61 mm^2
same,"Tumour surface, overall values (Median)",[2]; [10],99 mm^2
same,"Tumour volume, overall values (Mean)",[2]; [10],529.37 mm^3
same,"Tumour volume, overall values (Median)",[2]; [10],445.5 mm^3
same,"Tumour surface, overall values (Mean)",[2]; [11],131.35 mm^2
same,"Tumour surface, overall values (Median)",[2]; [11],140 mm^2
same,"Tumour volume, overall values (Mean)",[2]; [11],848.87 mm^3
same,"Tumour volume, overall values (Median)",[2]; [11],700 mm^3
same,"Differences in ASB XIV tumour growth rate vs. placebo, statistical significance p (Mann-Whitney U test)",[2],< 0.05
"Br.N[C@]1(C[n+]2ccccc2)C[C@H](C(=O)O)NC1=O.[Br-] (single isomer, unassigned; isomer 4) [isomer 4, 3S,5R-1-(3-Amino-5-carboxy-2-oxopyrrolidin-3-ylmethyl)pyridinium bromide hidrobromide]","Inhibition of the in vivo growth of the renal cell carcinoma (Renca), in words","[1]; 260 ng i.p. days 6, 7, 14",inhibit the in vivo growth
same,"Inhibitory effect on Renca tumour growth compared among isomers, in words","[1]; 260 ng i.p. days 6, 7, 14",highest inhibitory effect
same,"Tumour surface, overall values (Mean)",[1]; day 0 after tumour inoculation,0 mm^2
same,"Tumour surface, overall values (Median)",[1]; day 0 after tumour inoculation,0 mm^2
same,"Tumour volume, overall values (Mean)",[1]; day 0 after tumour inoculation,0 mm^3
same,"Tumour volume, overall values (Median)",[1]; day 0 after tumour inoculation,0 mm^3
same,"Tumour surface, overall values (Mean)",[1]; [3],0 mm^2
same,"Tumour surface, overall values (Median)",[1]; [3],0 mm^2
same,"Tumour volume, overall values (Mean)",[1]; [3],0 mm^3
same,"Tumour volume, overall values (Median)",[1]; [3],0 mm^3
same,"Tumour surface, overall values (Median)",[1]; [4],0 mm^2
same,"Tumour volume, overall values (Median)",[1]; [4],0 mm^3
same,"Tumour surface, overall values (Median)",[1]; day 18 after tumour inoculation,9 mm^2
same,"Differences in Renca tumour growth rate vs. placebo, statistical significance p (Mann-Whitney U test)",[1]; all days scored after the day 14th,< 0.01
same,"Inhibition of the in vivo growth of the lung carcinoma ASB XIV, in words",[2],inhibit the in vivo growth
same,"Tumour surface, overall values (Mean)",[2]; day 0 after tumour inoculation,0 mm^2
same,"Tumour surface, overall values (Median)",[2]; day 0 after tumour inoculation,0 mm^2
same,"Tumour volume, overall values (Mean)",[2]; day 0 after tumour inoculation,0 mm^3
same,"Tumour volume, overall values (Median)",[2]; day 0 after tumour inoculation,0 mm^3
same,"Tumour surface, overall values (Mean)",[2]; day 8 after tumour inoculation,0 mm^2
same,"Tumour surface, overall values (Median)",[2]; day 8 after tumour inoculation,0 mm^2
same,"Tumour volume, overall values (Mean)",[2]; day 8 after tumour inoculation,0 mm^3
same,"Tumour volume, overall values (Median)",[2]; day 8 after tumour inoculation,0 mm^3
same,"Tumour surface, overall values (Mean)",[2]; [5],0.17 mm^2
same,"Tumour surface, overall values (Median)",[2]; [5],0 mm^2
same,"Tumour volume, overall values (Mean)",[2]; [5],0.16 mm^3
same,"Tumour volume, overall values (Median)",[2]; [5],0 mm^3
same,"Tumour surface, overall values (Mean)",[2]; [6],2.79 mm^2
same,"Tumour surface, overall values (Median)",[2]; [6],0 mm^2
same,"Tumour volume, overall values (Mean)",[2]; [6],5.29 mm^3
same,"Tumour volume, overall values (Median)",[2]; [6],0 mm^3
same,"Tumour surface, overall values (Mean)",[2]; [7],14.59 mm^2
same,"Tumour surface, overall values (Median)",[2]; [7],9 mm^2
same,"Tumour volume, overall values (Mean)",[2]; [7],36.5 mm^3
same,"Tumour surface, overall values (Mean)",[2]; [8],34.52 mm^2
same,"Tumour volume, overall values (Mean)",[2]; [8],118.19 mm^3
same,"Tumour surface, overall values (Mean)",[2]; [9],65.86 mm^2
same,"Tumour surface, overall values (Median)",[2]; [9],49 mm^2
same,"Tumour volume, overall values (Mean)",[2]; [9],297.83 mm^3
same,"Tumour volume, overall values (Median)",[2]; [9],171.5 mm^3
same,"Tumour surface, overall values (Mean)",[2]; [10],90.28 mm^2
same,"Tumour surface, overall values (Median)",[2]; [10],81 mm^2
same,"Tumour volume, overall values (Mean)",[2]; [10],451.55 mm^3
same,"Tumour volume, overall values (Median)",[2]; [10],364.5 mm^3
same,"Tumour surface, overall values (Mean)",[2]; [11],123.45 mm^2
same,"Tumour surface, overall values (Median)",[2]; [11],110 mm^2
same,"Tumour volume, overall values (Mean)",[2]; [11],700.66 mm^3
same,"Tumour volume, overall values (Median)",[2]; [11],550 mm^3
same,"Differences in ASB XIV tumour growth rate vs. placebo, statistical significance p (Mann-Whitney U test)",[2],< 0.05
